Several values for one entry are separate records, joined by “and”; a condition that tells them apart may be missing. Identical values can stand only once.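 Step 1: Grow cells in 96-well plates. Step 2: Expose to compound for 48 hours at 5 concentrations. Step 3: Interpolate endpoints linearly; if unreached, use highest concentration. GI50 = concentration required for 50% inhibition of growth. TGI: concentration producing complete growth inhibition.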
Tests used:
Experiment in all cases: NCI anticancer screen, dose series, 48 h
A549 NSCLC = system: A549 NSCLC
CAKI-1 renal = system: CAKI-1 renal
CCRF-CEM leukemia = system: CCRF-CEM leukemia
HCT-15 colon = system: HCT-15 colon
K-562 leukemia = system: K-562 leukemia
M14 melanoma = system: M14 melanoma
MALME-3M melanoma = system: MALME-3M melanoma
SF-295 CNS = system: SF-295 CNS
U251 CNS = system: U251 CNS
UACC-62 melanoma = system: UACC-62 melanoma

| SMILES | TGI (A549 NSCLC) | TGI (CAKI-1 renal) | TGI (CCRF-CEM leukemia) | TGI (HCT-15 colon) | TGI (K-562 leukemia) | TGI (M14 melanoma) | TGI (MALME-3M melanoma) | TGI (SF-295 CNS) | TGI (U251 CNS) | TGI (UACC-62 melanoma) | GI50 (A549 NSCLC) | GI50 (CAKI-1 renal) | GI50 (CCRF-CEM leukemia) | GI50 (SF-295 CNS) | GI50 (U251 CNS) |
| --- | --- | --- | --- | --- | --- | --- | --- | --- | --- | --- | --- | --- | --- | --- | --- |
| CC(=O)Nn1c(=S)[nH]c2ccccc21 | > 100 µM | > 100 µM | > 100 µM | > 100 µM | > 100 µM | > 100 µM | > 100 µM | > 100 µM | > 100 µM | > 100 µM | – | – | – | – | – |
| COP(=O)(OC)C1=c2c(C)noc2=C2C=COC2C1=O (stereo not given) | > 100 µM | > 100 µM | > 100 µM | > 100 µM | > 100 µM | > 100 µM | > 100 µM | > 100 µM | > 100 µM | > 100 µM | – | – | – | – | – |
| N#CC(Cc1ccccc1)N(CCC1=CCCCC1)C(c1ccccc1)c1ccccc1 (stereo not given) | > 100 µM | > 100 µM | > 100 µM | > 100 µM | > 100 µM | > 100 µM | > 100 µM | > 100 µM | > 100 µM | > 100 µM | – | – | – | – | – |
| CC(=O)Nc1nc(NC(C)=O)c2[nH]c(CO)nc2n1 | > 100 µM | > 100 µM | > 100 µM | > 100 µM | > 100 µM | > 100 µM | > 100 µM | > 100 µM | > 100 µM | > 100 µM | – | – | – | – | – |
| [N-]=[N+]=NC(c1ccccc1)(c1ccccc1)c1ccccc1 | 34.3 µM | 46.7 µM | 55.4 µM | 40.5 µM | 42.5 µM | 35.5 µM | 29.5 µM | 27.1 µM | 29.2 µM | 31.4 µM | – | – | – | – | – |
| Nc1nccc(-c2c[nH]c3cc(Br)ccc23)n1 | 35.5 µM | 35 µM | > 100 µM | > 100 µM | > 100 µM | 43.9 µM | > 100 µM | > 100 µM | > 100 µM | 47.6 µM | – | – | – | – | – |
| CC(=O)/C=C/C1=C(C)CCCC1(C)CC(C)C (stereo not given) | > 100 µM | > 100 µM | 36.6 µM | 30.9 µM | 40.8 µM | > 100 µM | 89.1 µM | > 100 µM | 86.7 µM | 87.3 µM | – | – | – | – | – |
| CC(=O)N1C(C(=O)NC2CCCCC2)CSC1c1ccccc1 (stereo not given) | > 100 µM | > 100 µM | > 100 µM | > 100 µM | > 100 µM | > 100 µM | > 100 µM | > 100 µM | > 100 µM | > 100 µM | – | – | – | – | – |
| CCOC(=O)N1CCN(Cc2cc(=O)n3ccc(C)cc3n2)CC1 | > 100 µM | > 100 µM | > 100 µM | > 100 µM | > 100 µM | > 100 µM | > 100 µM | > 100 µM | > 100 µM | > 100 µM | – | – | – | – | – |
| Nc1c(-c2ccc(Cl)c(Cl)c2)c2ccc([N+](=O)[O-])cc2c(=O)n1-c1nc2ccccc2s1 | > 43.8 µM | > 39.7 µM | 0.525 µM | > 47 µM | > 100 µM | > 36.1 µM | 9.72 µM | 20.4 µM | > 34.1 µM | > 100 µM | – | – | – | – | – |
| Cc1oc2c(cc(O)c3cc(O)ccc32)c2cccc1-2 | > 100 µM | > 100 µM | > 100 µM | > 100 µM | > 100 µM | > 100 µM | > 100 µM | > 100 µM | > 100 µM | > 100 µM | – | – | – | – | – |
| CC1=Nc2ccccc2OC(C)=C1N=Nc1ccc2nc(C)[nH]c2c1 | > 100 µM | > 100 µM | > 100 µM | > 100 µM | > 100 µM | > 100 µM | > 100 µM | > 100 µM | > 100 µM | > 100 µM | – | – | – | – | – |
| COc1ccc(C(=C2C=CC=C2)c2ccc(OC)cc2)cc1 | > 100 µM | 56.3 µM | 53 µM | 74 µM | > 100 µM | > 100 µM | 81.8 µM | 54.4 µM | 71.6 µM | 98.1 µM | – | – | – | – | – |
| CCCCOC(=O)Nc1ccc(S(=O)(=O)Nc2ccccc2Cl)cc1 | > 100 µM | 44.5 µM | 57.3 µM | 44.9 µM | 43.1 µM | 37.7 µM | 52.5 µM | 32.9 µM | 36 µM | 32.7 µM | – | – | – | – | – |
| O=C(/C=C/c1ccc2c(c1)OCO2)c1ccc(O)cc1 | 50.7 µM | 28.7 µM | 35.3 µM | 27.5 µM | 27.1 µM | 32.2 µM | 28.6 µM | 32.6 µM | 26.9 µM | 33 µM | – | – | – | – | – |
| Cc1ccc(NC(=O)CC2Sc3ccccc3NC2=O)cc1C (stereo not given) | > 100 µM | > 100 µM | 92.3 µM | > 100 µM | > 100 µM | > 100 µM | > 100 µM | > 100 µM | > 100 µM | > 100 µM | – | – | – | – | – |

| SMILES | TGI (A549 NSCLC) | TGI (CAKI-1 renal) | TGI (CCRF-CEM leukemia) | TGI (HCT-15 colon) | TGI (K-562 leukemia) | TGI (M14 melanoma) | TGI (MALME-3M melanoma) | TGI (SF-295 CNS) | TGI (U251 CNS) | TGI (UACC-62 melanoma) | GI50 (A549 NSCLC) | GI50 (CAKI-1 renal) | GI50 (CCRF-CEM leukemia) | GI50 (SF-295 CNS) | GI50 (U251 CNS) |
| --- | --- | --- | --- | --- | --- | --- | --- | --- | --- | --- | --- | --- | --- | --- | --- |
| NC(N)=Nc1ccc(CC(N)NCC(=O)O)cc1 (stereo not given) | > 25 µM | > 25 µM | > 25 µM | > 25 µM | > 25 µM | > 25 µM | > 25 µM | > 25 µM | > 25 µM | > 25 µM | – | – | – | – | – |
| CC(C)=CCC[C@@H](C)c1c(O)c(O)c(C)c2nccnc12 | > 100 µM | > 90.3 µM | > 36.5 µM | > 100 µM | > 66.6 µM | > 100 µM | 66.7 µM | > 71.2 µM | > 100 µM | 50.5 µM | – | – | – | – | – |
| C[C@]12CCC3C4=C(CCC3C1CCC2=O)C(=O)[C@H]1O[C@H]1C4=O (stereo not given in full) | 26.4 µM | 4.88 µM | 4.07 µM | 2.8 µM | 6.87 µM | 10.2 µM | 37.5 µM | 29.8 µM | 8.38 µM | 9.34 µM | – | – | – | – | – |
| O=[N+]([O-])c1ccc2[nH]nc(OCc3ccccc3Cl)c2c1 | > 100 µM | > 100 µM | > 100 µM | > 100 µM | > 100 µM | > 100 µM | > 100 µM | > 100 µM | > 100 µM | 88.8 µM | – | – | – | – | – |
| Cc1ccc(-c2csc(=Nc3ccccc3)n2NC(=O)c2ccncc2)cc1 | > 100 µM | > 100 µM | > 67.5 µM | > 100 µM | 36.1 µM | > 100 µM | > 100 µM | 74.9 µM | > 31.6 µM | 70.6 µM | – | – | – | – | – |
| NC1(c2cc3ccccc3s2)CCCC1 | > 100 µM | > 100 µM | 42.3 µM | > 100 µM | 63 µM | 56.2 µM | > 100 µM | > 100 µM | > 100 µM | > 100 µM | – | – | – | – | – |
| Cc1ccccc1C(=N)c1ccccc1Cc1cccc2ccccc12 | > 100 µM | > 100 µM | 42.7 µM | 56.1 µM | > 100 µM | > 100 µM | 27.3 µM | 62.5 µM | 33.9 µM | 38.6 µM | – | – | – | – | – |
| O=C(NCc1ccccc1)c1n[nH][nH]c1=O | > 100 µM | > 100 µM | > 100 µM | > 100 µM | > 100 µM | > 100 µM | > 100 µM | > 100 µM | > 100 µM | > 100 µM | – | – | – | – | – |
| Cc1cc(-c2nc3ccc(F)cc3s2)ccc1NC(=O)[C@H](C)N | 24.6 µM | 22.1 µM | 6.23 µM | 14.1 µM | 4.7 µM | 3.94 µM | 36.2 µM | 24.7 µM | 9.06 µM | 3.6 µM | – | – | – | – | – |
| C=CC1(CC/C(=C\[N+](=O)[O-])c2ccc(OC)c(OC)c2)OCC(C)(C)CO1 | > 100 µM | 52.9 µM | > 100 µM | 38.6 µM | > 100 µM | 39.6 µM | 45.5 µM | 53.1 µM | > 100 µM | 29.4 µM | – | – | – | – | – |
| CC1(C)O[C@H]2OC(CO[Si](C)(C)C(C)(C)C)C(N=[N+]=[N-])[C@H]2O1 (stereo not given in full) | 35.8 µM | 42.5 µM | 38.3 µM | 38.3 µM | 29.1 µM | 43.9 µM | 31.7 µM | 24.9 µM | 48.1 µM | 52.6 µM | – | – | – | – | – |
| Cc1ccc(-c2cc(-c3ccco3)c(C#N)c(=S)n2C2OC(CO)C(O)C(O)C2O)cc1 (stereo not given) | 65.8 µM and > 100 µM | 46.9 µM and > 100 µM | 99.1 µM | > 100 µM | > 100 µM | 68.2 µM and 75.7 µM | > 100 µM | 31.3 µM and > 100 µM | 35.6 µM and > 100 µM | 13.3 µM and > 100 µM | 21.5 µM and 50.7 µM | 17.6 µM and > 100 µM | 23.2 µM | 11.8 µM and 28.6 µM | 16.6 µM and 36.5 µM |
| CC(=O)Oc1cccc2c1C(=O)CCCC2 | > 100 µM | > 100 µM | > 100 µM | > 100 µM | > 100 µM | > 100 µM | > 100 µM | > 100 µM | > 100 µM | > 100 µM | – | – | – | – | – |
| N#CC(NCc1cccc(CNC(C#N)c2ccccc2)c1)c1ccccc1 (stereo not given) | > 100 µM | > 100 µM | 36.5 µM | 66.1 µM | 31.9 µM | 62.2 µM | 65.9 µM | > 100 µM | > 100 µM | > 100 µM | – | – | – | – | – |
| Cc1cc(C)nc(NS(=O)(=O)c2ccc(NC(=O)c3ccc4nc5ccccc5c(Nc5ccc(S(N)(=O)=O)cc5)c4c3)cc2)n1 | > 100 µM | > 100 µM | 78.3 µM | > 100 µM | > 100 µM | > 100 µM | > 100 µM | > 100 µM | > 100 µM | > 100 µM | – | – | – | – | – |
| Cc1ccnc(NS(=O)(=O)c2ccc(N=[N+]=[N-])cc2)n1 | > 100 µM | > 100 µM | > 49.7 µM | > 100 µM | > 100 µM | > 100 µM | > 100 µM | > 100 µM | > 100 µM | > 100 µM | – | – | – | – | – |
